According to ChEMBL document CHEMBL1130975, “Preparation of alpha-keto ester enol acetates as potential prodrugs of human neutrophil elastase inhibitors” (Bioorg Med Chem Lett, 1998):
Each block holds one molecule with its values, some of them ahead of it.

Tests used:
[1] = target: T1, Neutrophil elastase (Homo sapiens) (UniProt P08246); assay: Tested for rate of substrate hydrolysis in the presence of human neutrophil elastase at a concentration of 10 nM
T1 sequence (whole entry): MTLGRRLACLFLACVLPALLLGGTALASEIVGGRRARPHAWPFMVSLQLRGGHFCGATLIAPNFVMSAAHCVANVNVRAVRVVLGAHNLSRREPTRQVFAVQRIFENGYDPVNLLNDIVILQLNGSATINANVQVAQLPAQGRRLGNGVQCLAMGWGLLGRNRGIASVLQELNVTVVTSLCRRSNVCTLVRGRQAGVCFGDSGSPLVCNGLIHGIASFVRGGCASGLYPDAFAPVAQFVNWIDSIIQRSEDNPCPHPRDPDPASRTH

[2] = target: T1, Neutrophil elastase (Homo sapiens); assay: Tested for rate of substrate hydrolysis in the presence of human neutrophil elastase at a concentration of 45 nM
[3] = target: T2, S-formylglutathione hydrolase (Sus scrofa) (UniProt Q9GJT2); conditions: 45 nM
T2 sequence (whole entry): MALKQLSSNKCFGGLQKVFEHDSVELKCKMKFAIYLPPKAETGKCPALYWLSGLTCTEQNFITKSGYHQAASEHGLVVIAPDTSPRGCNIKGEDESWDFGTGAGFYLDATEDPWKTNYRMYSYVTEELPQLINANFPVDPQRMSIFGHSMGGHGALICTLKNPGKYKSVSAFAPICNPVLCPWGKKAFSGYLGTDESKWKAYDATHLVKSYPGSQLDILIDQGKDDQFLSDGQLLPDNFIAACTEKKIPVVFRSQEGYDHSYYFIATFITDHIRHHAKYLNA
Description: Tested for rate of substrate hydrolysis in the presence of porcine kidney esterase at a concentration of 45 nM

[4] = target: T2, S-formylglutathione hydrolase (Sus scrofa); conditions: 10 nM
Description: Tested for rate of substrate hydrolysis in the presence of porcine kidney esterase at a concentration of 10 nM

Neutrophil elastase = target: T3, Neutrophil elastase (Homo sapiens, UniProt P08246); assay: Tested for rate of substrate hydrolysis in the presence of human neutrophil elastase
T3 sequence (P08246 whole entry): T1 sequence (whole entry)

[5] = target: T1, Neutrophil elastase (Homo sapiens); assay: Tested for rate of substrate hydrolysis in the presence of human neutrophil elastase at a concentration of 1 uM
[6] = target: T1, Neutrophil elastase (Homo sapiens); assay: Tested for rate of substrate hydrolysis in the presence of human neutrophil elastase at a concentration of 9 uM
[7] = target: T2, S-formylglutathione hydrolase (Sus scrofa); assay: Tested for rate of substrate hydrolysis in the presence of porcine kidney esterase at a concentration of 9 uM
[8] = target: T2, S-formylglutathione hydrolase (Sus scrofa); assay: Tested for rate of substrate hydrolysis in the presence of porcine kidney esterase at a concentration of 1 uM

Rate [1]: 99% | Rate [2]: 94% | Rate [3]: 37% | Rate [4]: 76%
Compound: COC(=O)/C(OC(C)=O)=C(\NC(=O)[C@@H]1CCCN1C(=O)[C@H](C)NC(=O)[C@H](C)NC(=O)c1ccc(C(=O)NS(=O)(=O)c2ccc(Cl)cc2)cc1)C(C)C

Ki (Neutrophil elastase): 2 nM
Compound: COC(=O)C(=O)[C@@H](NC(=O)C1CCCN1C(=O)[C@H](C)NC(=O)[C@H](C)NC(=O)c1ccc(C(=O)NS(=O)(=O)c2ccc(Cl)cc2)cc1)C(C)C (stereo not given in full)

Rate [5]: 81% | Rate [6]: 35% | Rate [7]: 2.8% | Rate [8]: 24%
Compound: COC(=O)CCC(=O)N[C@@H](C)C(=O)N[C@@H](C)C(=O)N1CCC[C@H]1C(=O)N/C(=C(/OC(C)=O)C(=O)OC)C(C)C

Ki (Neutrophil elastase): 200 nM
Compound: COC(=O)CCC(=O)N[C@@H](C)C(=O)N[C@@H](C)C(=O)N1CCC[C@H]1C(=O)N[C@H](C(=O)C(=O)OC)C(C)C
